Experimental data as given in ChEMBL document CHEMBL4627257, “Targeting the DNA damage response (DDR) by natural compounds” (Bioorg Med Chem, 2020).
The source made the active and inactive calls. The rule behind the calls is not given here.

Legend:
SU.86.86 [1] = assay: Induction of DNA damage in human SU8686 cells assessed as tail DNA formation at IC50 by alkaline Comet assay; format: functional, cell-based
SU.86.86 [2] = assay: Induction of DNA damage in human SU8686 cells assessed as increase in gammaH2AX phosphorylation at […] at cytotoxic IC50 in presence of 0.3 uM doxorubicin by fluorometry method; format: functional
SU.86.86 [3] = assay: Induction of DNA damage in human SU8686 cells assessed as increase in gammaH2AX nuclear foci under basal condition at IC50 by fluorometry method; format: functional, cell-based
SU.86.86 [4] = assay: Induction of DNA damage in human SU8686 cells assessed as increase gammaH2AX protein level at IC50 for 24 hrs in presence of 5 uM cisplatin by western blot analysis; format: functional, cell-based
SU.86.86 [5] = assay: Induction of DNA damage in human SU8686 cells assessed as increase in gammaH2AX phosphorylation at […] at cytotoxic IC50 incubated for 24 hrs by fluorometry method; format: functional
SU.86.86 [6] = assay: Induction of DNA damage in human SU8686 cells assessed as increase in gammaH2AX phosphorylation at […] at cytotoxic IC50 in presence of 5 uM cisplatin by fluorometry method; format: functional
SU.86.86 [7] = assay: Induction of DNA damage in human SU8686 cells assessed as tail DNA formation at IC50 in presence of 5 uM cisplatin by alkaline Comet assay; format: functional, cell-based
SU.86.86 [8] = assay: Induction of DNA damage in human SU8686 cells assessed as increase gammaH2AX protein level at IC50 for 24 hrs in presence of 0.3 uM doxorubicin by western blot analysis; format: functional, cell-based

Structure (SMILES): C/C=C(\C)[C@H]1[C@@H](/C=C/C=C(\C)[C@@H](O)[C@@H](C)CO)[C@@H]2C[C@@H](OC(=O)Cc3ccccc3)[C@](C)(O)C[C@H]2[C@@H]2O[C@@]21C
- Activity (SU.86.86 [1]): Active
- Activity (SU.86.86 [2]): >20%
- Activity (SU.86.86 [3]): Active

Structure (SMILES): CC(C)[C@H]1OC(=O)[C@H](Cc2ccccc2)N(C)C(=O)[C@@H](C(C)C)OC(=O)[C@H](Cc2ccccc2)N(C)C(=O)[C@@H](C(C)C)OC(=O)[C@H](Cc2ccccc2)N(C)C1=O
- Activity (SU.86.86 [4]): Active
- Activity (SU.86.86 [1]): Active
- Activity (SU.86.86 [3]): Active

Structure (SMILES): Cc1cc(O)c2c(c1)C(=O)c1c(c(O)cc(O)c1-c1c(O)cc(O)c3c1C(=O)c1cc(C)cc(O)c1C3=O)C2=O [SKYRIN]
- Activity (SU.86.86 [2]): >20%

Structure (SMILES): COC(C)CCOC(=O)c1cc(O)c(O)c(O)c1 (stereo unspecified)
- Activity (SU.86.86 [5]): >30%

Structure (SMILES): Cc1cc(O)cc2c1Oc1cc(O)cc(C)c1C(=O)O2
- Activity (SU.86.86 [6]): >20%
- Activity (SU.86.86 [2]): >20%

Structure (SMILES): CC(C)=CCc1cc(-c2coc3cc(O)ccc3c2=O)ccc1O [NEOBAVAISOFLAVONE]
- Activity (SU.86.86 [6]): >20%
- Activity (SU.86.86 [2]): >20%

Structure (SMILES): CC(C)[C@@H]1OC(=O)[C@@H](Cc2ccc(O)cc2)N(C)C(=O)[C@H](C(C)C)OC(=O)[C@@H](Cc2ccccc2)N(C)C(=O)[C@H](C(C)C)OC(=O)[C@@H](Cc2ccccc2)N(C)C1=O
- Activity (SU.86.86 [5]): >30%
- Activity (SU.86.86 [4]): Active
- Activity (SU.86.86 [1]): Active
- Activity (SU.86.86 [7]): Active

Structure (SMILES): CCOC(=O)c1cc(Br)c(Br)[nH]1
- Activity (SU.86.86 [2]): >20%

Structure (SMILES): O=c1cc(CO)occ1O [KOJIC ACID]
- Activity (SU.86.86 [2]): >20%

Structure (SMILES): COc1cc(C[C@H]2COC(=O)[C@@H]2Cc2ccc(O)c(OC)c2)ccc1O [MATAIRESINOL]
- Activity (SU.86.86 [2]): >20%

Structure (SMILES): CC1=CCC[C@H]2[C@](C)(CC3=CC(=O)C=CC3=O)[C@@H](C)CC[C@]12C [AVARONE]
- Activity (SU.86.86 [6]): >20%
- Activity (SU.86.86 [2]): >20%

Structure (SMILES): COc1ccc(CC#N)c(O)c1
- Activity (SU.86.86 [2]): >20%

Structure (SMILES): CC(C)=CCC[C@@H](C)c1ccc(C)c(O)c1 [XANTHORRIZOL]
- Activity (SU.86.86 [2]): >20%

Structure (SMILES): COc1cc(O)c2c(c1)C(=O)c1cc(C)c(O)cc1C2=O [MACROSPORIN]
- Activity (SU.86.86 [2]): >20%

Structure (SMILES): COC(=O)C[C@@H]1Cc2cc3c(-c4c(OC)cc(O)c5c(O)c6c(cc45)C[C@@H](CC(=O)OC)OC6=O)c(OC)cc(O)c3c(O)c2C(=O)O1
- Activity (SU.86.86 [4]): Active
- Activity (SU.86.86 [1]): Active
- Activity (SU.86.86 [3]): Active
- Activity (SU.86.86 [8]): Active

Structure (SMILES): COC1=C(Br)[C@H](O)[C@](O)(CC#N)C=C1Br
- Activity (SU.86.86 [2]): >20%

Structure (SMILES): COC1=C(Br)[C@@H](O)[C@]2(C=C1Br)CC(C(=O)NC[C@@H](O)c1cc(Br)c(OC[C@@H](O)CNC(=O)C3=NO[C@]4(C=C(Br)C(OC)=C(Br)[C@@H]4O)C3)c(Br)c1)=NO2
- Activity (SU.86.86 [2]): >20%

Structure (SMILES): COC(=O)c1cc(O)cc(OC)c1C(=O)c1c(O)c(Cl)c(C)c(Cl)c1O [DIHYDROGEODIN]
- Activity (SU.86.86 [2]): >20%

Structure (SMILES): C/C=C1\NC(=O)[C@H](Cc2ccccc2)NC(=O)[C@@H](C(C)C)NC(=O)[C@H]([C@@H](C)CC)NC(=O)[C@H](NC(=O)[C@H](NC(=O)[C@H](CCCN)NC(=O)[C@H]2CCCN2C(=O)[C@H](NC(=O)[C@@H](NC(=O)[C@H](NC(=O)[C@H](NC(=O)CCCC(C)C)C(C)C)[C@@H](C)O)C(C)C)C(C)C)[C@@H](C)CC)C(C)OC(=O)[C@H](C(C)C)NC1=O (stereo partly specified)
- Activity (SU.86.86 [6]): >20%

Structure (SMILES): C=C1CC[C@@H]2C(C)(C)CCC[C@@]2(C)[C@@H]1CC/C(C)=C/Cn1c[n+](C)c2ncnc(NO)c21
- Activity (SU.86.86 [6]): >20%

Structure (SMILES): CN1C(=O)NC(CCCNC(=O)c2cc(Br)c(Br)n2C)C1=O (stereo unspecified) [MIDPACAMIDE]
- Activity (SU.86.86 [2]): >20%

Structure (SMILES): COc1cc(O)c2c(=O)oc3cc(O)cc(C)c3c2c1
- Activity (SU.86.86 [2]): >20%

Structure (SMILES): CCCCCc1cc(OC)c(OC(=O)c2c(O)cc(OC)cc2CCC)c(O)c1C(=O)O
- Activity (SU.86.86 [2]): >20%

Structure (SMILES): CC[C@H](C)[C@H](NC(=O)[C@H](Cc1ccccc1)NC(=O)[C@H](CC(C)C)NC(=O)[C@@H]1CCCN1C(=O)/C1=C/N[C@@H](C(C)C)C(=O)N2CCC[C@H]2C(=O)N[C@@H](C(C)C)C(=O)N[C@@H](Cc2ccccc2)C(=O)N2CCC[C@H]2C(=O)N1)C(N)=O
- Activity (SU.86.86 [5]): >30%

Structure (SMILES): CC[C@H](C)[C@H]1C(=O)N[C@@H](Cc2ccc(OCC=C(C)C)cc2)C(=O)N(C)[C@@H](C)C(=O)O[C@@H](Cc2ccccc2)C(=O)N2CCC[C@H]2C(=O)N[C@H](C(=O)O)C(=O)N1C
- Activity (SU.86.86 [2]): >20%

Structure (SMILES): O=C1C[C@H](O)[C@H]2c3ccc(O)c4c3[C@H](c3ccc(O)c1c32)[C@@H](O)CC4=O
- Activity (SU.86.86 [6]): >20%

Structure (SMILES): [O-][n+]1ccc2c([nH]c3ccccc32)c1C1=C[C@@]2(O)CC/C=C\CCCCN3CC[C@@H]1[C@]1(CC/C=C\CCCCN[C@H]12)C3
- Activity (SU.86.86 [2]): >20%

Structure (SMILES): O=c1[nH]c2ccccc2c(-c2ccccc2)c1O
- Activity (SU.86.86 [2]): >20%

Structure (SMILES): C=CC(C)(C)[C@@]12C[C@H]3C(=O)N/C(=C/c4c[nH]cn4)C(=O)N3[C@@H]1Nc1ccccc12 [ROQUEFORTINE C]
- Activity (SU.86.86 [2]): >20%

Structure (SMILES): C=C1CCC[C@H]2[C@](C)(CC3=C(O)C(=O)C=C(N[C@@H](CO)C(=O)O)C3=O)[C@@H](C)CC[C@]12C
- Activity (SU.86.86 [5]): >30%

Structure (SMILES): CC(C)=CCC/C(C)=C/CC/C(C)=C/CC/C(C)=C/CC/C(C)=C/CC/C(C)=C/Cc1cc(O)ccc1O
- Activity (SU.86.86 [1]): Active
- Activity (SU.86.86 [3]): Active

Structure (SMILES): CCCCC/C=C/C(=O)[C@H]1C(=O)O[C@@]2(C)C(=O)C(C=O)=C3C=C(C)OC=C3[C@H]12
- Activity (SU.86.86 [5]): >30%
- Activity (SU.86.86 [4]): Active
- Activity (SU.86.86 [1]): Active

Structure (SMILES): O=C1c2cccc(O)c2C(=O)c2c(O)cc(CO)cc21 [ALOE-EMODIN]
- Activity (SU.86.86 [2]): >20%

Structure (SMILES): CC[C@H](C)C1C(=O)O[C@H](C(C)C)C(=O)N(C)[C@@H]([C@@H](C)CC)C(=O)O[C@H](C(C)C)C(=O)N(C)[C@@H](C(C)C)C(=O)O[C@H](C(C)C)C(=O)N1C (stereo partly specified)
- Activity (SU.86.86 [2]): >20%

Structure (SMILES): Oc1cccc2c1[nH]c1c(C3=C[C@@]4(O)CC/C=C\CCCCN5CC[C@@H]3[C@]3(C[C@@H]6/C=C\CCCCN6[C@H]34)C5)nccc12
- Activity (SU.86.86 [6]): >20%
- Activity (SU.86.86 [2]): >20%

Structure (SMILES): CC(C)=CCc1cc(C(=O)/C=C/c2ccc(O)cc2)c(O)cc1O [BROUSSOCHALCONE B]
- Activity (SU.86.86 [5]): >30%
- Activity (SU.86.86 [2]): >20%

Structure (SMILES): CC(=O)c1c(O)cc(O)cc1C[C@@H]1Cc2cc(O)cc(O)c2C(=O)O1
- Activity (SU.86.86 [5]): >30%

Structure (SMILES): CCCc1cc(OC)cc(O)c1C(=O)Oc1c(OC)cc(CCC)c(C(=O)O)c1O
- Activity (SU.86.86 [6]): >20%

Structure (SMILES): Oc1c(Br)cc(Br)cc1Oc1ccc(Br)cc1Br
- Activity (SU.86.86 [6]): >20%
- Activity (SU.86.86 [2]): >20%

Structure (SMILES): CC1=CCC[C@H]2[C@](C)(Cc3cc(O)ccc3O)[C@@H](C)CC[C@]12C [AVAROL]
- Activity (SU.86.86 [2]): >20%

Structure (SMILES): COC(=O)/C=C/Oc1ccc(OC)cc1
- Activity (SU.86.86 [2]): >20%

Structure (SMILES): C=C1[C@@H](C)[C@H]2[C@H](Cc3ccccc3)NC(=O)[C@]23[C@H](OC(C)=O)/C=C\[C@@H](C)C[C@@H](C)C/C=C\[C@H]3[C@@H]1O
- Activity (SU.86.86 [5]): >=30%

Structure (SMILES): COc1cc(O)c2c(c1)C(=O)C1=C(C2=O)[C@H](O)[C@@H](O)[C@@](C)(O)[C@@H]1O [ALTERSOLANOL A]
- Activity (SU.86.86 [6]): >20%
- Activity (SU.86.86 [2]): >20%

Structure (SMILES): C[C@H]1CCC/C=C\C(=O)Cc2cc(O)cc(O)c2C(=O)O1
- Activity (SU.86.86 [5]): >30%

Structure (SMILES): COC1=CC(=O)[C@]2(C=C1OC)OC[C@H]1Oc3c4c(cc(O)c3C(=O)[C@H]12)OC(C)(C)C=C4
- Activity (SU.86.86 [5]): >30%

Structure (SMILES): COC1=C(Br)[C@H](O)[C@@]2(C=C1Br)CC(C(=O)NCCCCNC(=O)C1=NO[C@]3(C=C(Br)C(OC)=C(Br)[C@@H]3O)C1)=NO2 [AEROTHIONIN]
- Activity (SU.86.86 [2]): >20%

Structure (SMILES): Cc1cc(O)cc2c1Oc1cc(O)c(O)c(C)c1C(=O)O2
- Activity (SU.86.86 [5]): >30%

Structure (SMILES): O=C1CCCN2[C@@H](CC1)C[C@]13CN4CCCC/C=C\CC[C@](O)(C=C(c5nccc6c5[nH]c5c(O)cccc56)[C@@H]1CC4)[C@H]23
- Activity (SU.86.86 [6]): >20%
- Activity (SU.86.86 [2]): >20%

Structure (SMILES): CCCCCC[C@H](C)/C=C(C)/C=C/C(=O)N[C@@H]1C[C@@]2(O[C@@H]1O)[C@@H]1O[C@@H]1C(=O)[C@@H]1O[C@@H]12
- Activity (SU.86.86 [2]): >20%

Structure (SMILES): O=C1C[C@@H](c2ccccc2)Oc2cc(O)cc(O)c21 [PINOCEMBRIN]
- Activity (SU.86.86 [5]): >30%

Structure (SMILES): C=C[C@@](C)(/C=C/c1ccc(O)cc1)CCC=C(C)C [BAKUCHIOL]
- Activity (SU.86.86 [2]): >20%

Structure (SMILES): CCCCCC(N)=O
- Activity (SU.86.86 [5]): >30%
- Activity (SU.86.86 [2]): >20%

Structure (SMILES): CC1=C(CC/C(C)=C/CC/C(C)=C/CCC2=CC(=O)OC2O)C(C)(C)CCC1 (stereo unspecified) [LUFFARIELLOLIDE]
- Activity (SU.86.86 [6]): >20%
- Activity (SU.86.86 [2]): >20%
